Source: patent publication EP4711369A1, “1H-[1,2,3]TRIAZOLO[4,5-H]QUINAZOLINE COMPOUNDS AS PROTEIN KINASE INHIBITORS” (Chengdu Cynogen Bio-Pharmaceutical Technology Co., Ltd., priority 2023, dated 2024)

What was measured:
[1] = test system: Human ovarian cancer OVCAR3 cells; assay: Assay of cell proliferation (CellTiter-Glo); type: cell-based; conditions: Homo sapiens, OVCAR-3, 144 h, 6 days, read-out: OVCAR3 IC50 of cell proliferation inhibitory activity
Experimental: (§1) Human ovarian cancer OVCAR3 cells were inoculated at 2000 cells/well in a 96-well plate and cultured in RPMI 1640 medium containing 20% FBS at 37 °C and 5% CO2 overnight in an incubator. The next day, the compounds were subjected to a three-fold gradient dilution in DMSO from a peak concentration of 2 mM to give nine concentrations. Then, the compounds were diluted 3:200 in growth medium, and finally diluted 1:3 in the cell culture supernatant to give a culture supernatant containing 0.5% DMSO, with the compounds treatment concentrations ranging from 10 µM to 0.1 nM. The cells and the compounds were incubated at 37 °C and 5% CO2 for 6 days. Then, cell proliferation assay was performed using the CellTiter-Glo (manufacturer: Promega, Cat. No. G9242), and luminescence signals were read using a multifunctional microplate reader (model: Synergy H1, manufacturer: BiotTek). IC50 values were calculated by fitting of the concentration-response curves with a four-parameter analysis method using GraphPad Prism software.

[2] = test system: human breast cancer HCC1806 cells; assay: Assay of cell proliferation (CellTiter-Glo); type: cell-based; conditions: Homo sapiens, 144 h, 6 days, read-out: HCC1806 IC50 of cell proliferation inhibitory activity
Experimental: as §1
(§2) The cell proliferation assays of human colon cancer HCT-116 cells, human breast cancer MCF-7 cells, human breast cancer HCC1806 cells, human acute myeloid leukemia MV-4-11 cells, and human gastric cancer MKN1 cells were performed according to the same method, with different inoculation densities set according to different cell growth characteristics.

[3] = test system: human gastric cancer MKN1 cells; assay: Assay of cell proliferation (CellTiter-Glo); type: cell-based; conditions: Homo sapiens, MKN-1, 144 h; MNK1, 6 days; read-out: MKN1 IC50 of cell proliferation inhibitory activity
Experimental: as §1, §2

CDK9/cyclin T1 = CDK9/cyclin T1 (Homo sapiens, UniProt P50750); assay: Assay of kinase activity (ADP-Glo); type: biochemical; conditions: kinase inhibitory activity
CDK9/cyclin T1, sequence (P50750 whole entry, species assumed): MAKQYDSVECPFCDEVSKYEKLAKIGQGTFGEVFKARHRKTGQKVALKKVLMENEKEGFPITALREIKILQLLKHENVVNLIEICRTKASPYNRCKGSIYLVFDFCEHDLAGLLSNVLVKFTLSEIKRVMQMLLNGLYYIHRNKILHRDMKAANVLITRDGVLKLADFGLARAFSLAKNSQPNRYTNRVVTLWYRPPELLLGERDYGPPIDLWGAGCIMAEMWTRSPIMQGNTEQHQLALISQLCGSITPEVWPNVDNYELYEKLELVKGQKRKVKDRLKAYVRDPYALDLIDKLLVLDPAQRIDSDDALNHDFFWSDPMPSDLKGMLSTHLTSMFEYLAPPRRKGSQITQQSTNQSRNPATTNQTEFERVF
CDK9/cyclin T1, sequence (O60563 whole entry partner, species assumed): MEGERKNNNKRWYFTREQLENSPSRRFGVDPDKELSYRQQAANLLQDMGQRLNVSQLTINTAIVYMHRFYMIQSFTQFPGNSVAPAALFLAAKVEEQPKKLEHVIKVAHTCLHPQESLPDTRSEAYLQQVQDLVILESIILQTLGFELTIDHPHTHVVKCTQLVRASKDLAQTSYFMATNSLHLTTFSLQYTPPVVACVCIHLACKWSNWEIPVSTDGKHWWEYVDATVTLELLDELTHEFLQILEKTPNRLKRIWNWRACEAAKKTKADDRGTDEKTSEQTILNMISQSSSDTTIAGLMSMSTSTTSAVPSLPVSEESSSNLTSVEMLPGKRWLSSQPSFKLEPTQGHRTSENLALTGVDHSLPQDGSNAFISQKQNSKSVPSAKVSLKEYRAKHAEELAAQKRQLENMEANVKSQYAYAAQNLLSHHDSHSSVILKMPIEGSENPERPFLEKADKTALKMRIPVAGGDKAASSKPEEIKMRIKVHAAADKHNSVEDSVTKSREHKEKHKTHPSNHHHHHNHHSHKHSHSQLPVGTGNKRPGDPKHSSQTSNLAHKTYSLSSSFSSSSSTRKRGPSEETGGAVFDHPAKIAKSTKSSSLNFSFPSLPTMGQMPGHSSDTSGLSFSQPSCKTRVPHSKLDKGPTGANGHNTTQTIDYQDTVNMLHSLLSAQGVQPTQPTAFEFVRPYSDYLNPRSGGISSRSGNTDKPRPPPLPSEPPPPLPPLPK
Experimental: (§3) CDK/cyclin catalyzes the phosphorylation of a substrate, which concomitantly consumes ATP and produces ADP. The inhibition rate (%) in the presence of a small molecule inhibitor was assessed by measuring the amount of ADP generated in the reaction. The assay compounds were thoroughly mixed by vortexing and then diluted in DMSO to 100× the assay concentration. 40 nL of a compound was transferred to a 384-well assay plate using a nanoliter pipetting system (ECHO® 655 SYSTEM). A 2× kinase solution was prepared using a 1× kinase reaction buffer (50 mM Hepes, 10 mM MgCl2, 0.01% Brij35, 2 mM DTT). 2 µL of the kinase solution was transferred to the 384-well assay plate, and the plate was centrifuged at 1000 rpm for 60 seconds in a microplate centrifuge. The plate was incubated at 25 °C in a biochemical incubator for 10 minutes. A 2x mixture of substrate and ATP was prepared in the kinase reaction buffer. Then, 2 µL of the mixture of substrate and ATP was added to the 384-well assay plate. The plate was centrifuged at 1000 rpm for 60 seconds in a microplate centrifuge, and incubated at 25 °C in a biochemical incubator for 60 minutes. 4 µL of ADP-Glo Reagent (Cat. No. V9103, manufacturer: Promega) incubated at 25 °C in a biochemical incubator was added to each well of the 384-well assay plate. The plate was centrifuged at 1000 rpm for 60 seconds in a microplate centrifuge, and incubated at 25 °C in a biochemical incubator for 40 minutes. 8 µL of Detection Reagent incubated at 25 °C in a biochemical incubator was added to each well of the 384-well assay plate. The plate was centrifuged at 1000 rpm for 60 seconds in a microplate centrifuge, and incubated at 25 °C in a biochemical incubator for 40 minutes. Finally, luminescence signals were read using a multifunctional microplate reader (model: PHERAstar FSX, manufacturer: BMG). IC50 values were calculated by nonlinear fitting of the concentration-response curves using GraphPad Prism software.

CDK6/cyclin D3 = CDK6/cyclin D3 (Homo sapiens, UniProt Q00534); assay: Assay of kinase activity (ADP-Glo); type: biochemical; conditions: kinase inhibitory activity
CDK6/cyclin D3, sequence (Q00534 whole entry, species assumed): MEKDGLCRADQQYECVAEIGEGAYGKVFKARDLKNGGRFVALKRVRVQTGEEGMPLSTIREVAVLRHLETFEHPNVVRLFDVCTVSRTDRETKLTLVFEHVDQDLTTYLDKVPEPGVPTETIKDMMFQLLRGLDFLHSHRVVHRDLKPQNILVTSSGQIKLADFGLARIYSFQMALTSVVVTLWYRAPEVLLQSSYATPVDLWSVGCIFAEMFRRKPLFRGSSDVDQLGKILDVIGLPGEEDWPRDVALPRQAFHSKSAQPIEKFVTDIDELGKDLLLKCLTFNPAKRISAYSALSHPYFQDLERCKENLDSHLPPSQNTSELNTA
CDK6/cyclin D3, sequence (P30281 whole entry partner, species assumed): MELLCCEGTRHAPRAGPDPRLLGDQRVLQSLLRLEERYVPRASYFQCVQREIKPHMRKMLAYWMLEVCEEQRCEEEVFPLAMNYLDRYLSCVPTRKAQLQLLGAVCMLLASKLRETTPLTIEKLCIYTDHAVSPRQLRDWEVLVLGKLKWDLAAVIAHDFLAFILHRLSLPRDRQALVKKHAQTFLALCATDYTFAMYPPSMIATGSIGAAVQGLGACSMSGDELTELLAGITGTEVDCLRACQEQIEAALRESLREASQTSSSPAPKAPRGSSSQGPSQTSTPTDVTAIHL
Experimental: as §3

CDK4/cyclin D1 = CDK4/cyclin D1 (Homo sapiens, UniProt P11802); assay: Assay of kinase activity (ADP-Glo); type: biochemical; conditions: kinase inhibitory activity
CDK4/cyclin D1, sequence (P11802 whole entry, species assumed): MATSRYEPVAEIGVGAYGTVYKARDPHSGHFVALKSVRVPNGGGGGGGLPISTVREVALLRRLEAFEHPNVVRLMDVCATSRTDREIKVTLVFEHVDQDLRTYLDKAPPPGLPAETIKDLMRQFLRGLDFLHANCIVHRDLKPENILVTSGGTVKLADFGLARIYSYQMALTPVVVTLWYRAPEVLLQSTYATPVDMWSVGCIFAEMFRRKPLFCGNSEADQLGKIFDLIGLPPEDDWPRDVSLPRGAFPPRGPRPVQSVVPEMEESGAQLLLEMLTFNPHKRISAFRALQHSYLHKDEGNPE
CDK4/cyclin D1, sequence (P24385 whole entry partner, species assumed): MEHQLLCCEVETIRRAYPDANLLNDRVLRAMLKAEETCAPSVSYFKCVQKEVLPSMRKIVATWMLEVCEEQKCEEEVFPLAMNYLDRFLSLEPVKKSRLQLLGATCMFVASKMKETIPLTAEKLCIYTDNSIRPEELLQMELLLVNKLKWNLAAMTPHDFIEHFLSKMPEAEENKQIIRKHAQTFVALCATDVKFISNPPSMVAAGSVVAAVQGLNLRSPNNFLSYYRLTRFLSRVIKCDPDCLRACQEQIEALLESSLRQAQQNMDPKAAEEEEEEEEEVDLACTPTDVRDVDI
Experimental: as §3, with “40 nL of a compound was transferred to a 384-well assay plate using a nanoliter pipetting system (ECHO® 655 SYSTEM).” left out

CDK2/cyclin E = CDK2/cyclin E (Homo sapiens, UniProt P24941); assay: Assay of kinase activity (ADP-Glo); type: biochemical; conditions: kinase inhibitory activity, read-out: CDK2/E1 IC50
Experimental: as §3, with “40 nL of a compound was transferred to a 384-well assay plate using a nanoliter pipetting system (ECHO® 655 SYSTEM).” left out

IC50 [1] [nM]	IC50 [2] [nM]	IC50 [3] [nM]	IC50 (CDK9/cyclin T1) [nM]	IC50 (CDK6/cyclin D3) [nM]	IC50 (CDK4/cyclin D1) [nM]	IC50 (CDK2/cyclin E) [nM]	Compound
359	476	241	144	36	3	0.8	CC(C)n1nnc2c(C(F)F)cc3cnc(Nc4ccc(C(=O)N5CC[C@H](N(C)C)C5)cc4)nc3c21 [Example I-45, (S)-(4-((4-(Difluoromethyl)-1-isopropyl-1H-[1,2,3]triazolo[4,5-H]quinazolin-8-yl)amino)phenyl)(3-(dimethylamino)pyrrolidin-1-yl)methanone]
5	7	1	2	4	0.7	0.07	CN[C@H]1CCN(C(=O)c2ccc(Nc3ncc4ccc5nnn(C6CCCC6)c5c4n3)cc2)C1 [Example I-39, (S)-(4-((1-cyclopentyl-1H-[1,2,3]triazolo[4,5-H]quinazolin-8-yl)amino)phenyl)(3-(methylamino)pyrrolidin-1-yl)methanone]
146	169	111	148	20	2	0.7	CC(C)n1nnc2c(C(F)F)cc3cnc(Nc4ccc(C(=O)N5CCCN(C)CC5)cc4)nc3c21 [Example I-47, (4-((4-(Difluoromethyl)-1-isopropyl-1H-[1,2,3]triazolo[4,5-H]quinazolin-8-yl)amino)phenyl)(4-methyl-1,4-diazepan-1-yl)methanone]
1310	1740	548	100	85	4	2	C[C@H](CO)n1nnc2ccc3cnc(Nc4ccc(C(=O)N5CCNCC5)cc4)nc3c21 [Example I-50, (R)-(4-((1-(1-Hydroxypropan-2-yl)-1H-[1,2,3]triazolo[4,5-H]quinazolin-8-yl)amino)phenyl)(piperazin-1-yl)methanone]
10	16	5	2	3	0.7	0.06	CN(C)[C@H]1CCN(C(=O)c2ccc(Nc3ncc4ccc5nnn(C6CCCC6)c5c4n3)cc2)C1 [Example I-40, (S)-(4-((1-cyclopentyl-1H-[1,2,3]triazolo[4,5-H]quinazolin-8-yl)amino)phenyl)(3-(dimethylamino)pyrrolidin-1-yl)methanone]
193	273	67	380	89	8	7	CC(C)n1nnc2ccc3cnc(Nc4ccc(C(=O)N5CCN(CCCO)CC5)cc4)nc3c21 [Example I-31, (4-(3-Hydroxypropyl)piperazin-1-yl)(4-((1-isopropyl-1H-[1,2,3]triazolo[4,5-H]quinazolin-8-yl)amino)phenyl)metha none]
	5500		344	205	7	3	C[C@@H](CO)n1nnc2ccc3cnc(Nc4ccc(C(=O)N5CCNCC5)cc4)nc3c21 [Example I-48, (S)-(4-((1-(1-Hydroxypropan-2-yl)-1H-[1,2,3]triazolo[4,5-H]quinazolin-8-yl)amino)phenyl)(piperazin-1-yl)methanone]
40	207	15	6	12	2	1	CCN1CCN(C(=O)c2ccc(Nc3ncc4ccc5nnn(C(C)C)c5c4n3)cc2)CC1 [Example I-29, (4-Ethylpiperazin-1-yl)(4-((1-isopropyl-1H-[1,2,3]triazolo[4,5-H]quinazolin-8-yl)amino)phenyl)metha none]
1370	2160		390	401	21	3	C[C@@H](CO)n1nnc2ccc3cnc(Nc4ccc(C(=O)N5CCOCC5)cc4)nc3c21 [Example I-49, (S)-(4-((1-(1-Hydroxypropan-2-yl)-1H-[1,2,3]triazolo[4,5-H]quinazolin-8-yl)amino)phenyl)(morpholino)methanone]
	5090		419	127	10	4	CC(C)(O)Cn1nnc2ccc3cnc(Nc4ccc(C(=O)N5CCNCC5)cc4)nc3c21 [Example I-52, (4-((1-(2-Hydroxy-2-methylpropyl)-1H-[1,2,3]triazolo[4,5-H]quinazolin-8-yl)amino)phenyl)(piperazin-1-yl)methanone]
275	317	170	134	24	3	0.7	CC(C)n1nnc2c(C(F)F)cc3cnc(Nc4ccc(C(=O)N5CCCNCC5)cc4)nc3c21 [Example I-46]
11	15	4	2	5	1	0.08	O=C(c1ccc(Nc2ncc3ccc4nnn(C5CCCC5)c4c3n2)cc1)N1CCCNCC1 [Example I-41, (4-((1-Cyclopentyl-1H-[1,2,3]triazolo[4,5-H]quinazolin-8-yl)amino)phenyl)(1,4-diazepan-1-yl)methanone]
1720	3170		995	803	49	8	CC(C)(O)Cn1nnc2ccc3cnc(Nc4ccc(C(=O)N5CCOCC5)cc4)nc3c21 [Example I-53, (4-((1-(2-Hydroxy-2-methylpropyl)-1H-[1,2,3]triazolo[4,5-H]quinazolin-8-yl)amino)phenyl)(morpholino)methanone]
264	177		44	94	2	1	CC(C)n1nnc2ccc3cnc(Nc4ccc(C(=O)N5CCC(N(C)C)CC5)cc4)nc3c21 [Example I-15, (4-(Dimethylamino)piperidin-1-yl)(4-((1-isopropyl-1H-[1,2,3]triazolo[4,5-H]quinazolin-8-yl)amino)phenyl)metha none]
